Results as given in patent publication US8937065B2, “Compositions and methods for modulating a kinase” (Clevexel Pharma, priority 2011, dated 2015).
pIC50: −log10 of the molar value. In brackets after ≈: the same amount, converted by molar mass.

Legend:
[1] = test system: NF-kB pathway, THP-1 cells; test: NFkB-NFkB-bla THP-1 screen; conditions: Homo sapiens, read-out: IC50 Cell-based selectivity: NF-kB pathway THP-1 cells
Experimental: (§1) Mechanism-based inhibition assays using compound 7A (Table 1) were performed using GeneBLAzer® Technology (Invitrogen Corporation), according to manufacturer specifications. Briefly, GeneBLAzer® Technology uses a mammalian-optimized Beta-lactamase reporter gene (bla) combined with a FRET-enabled substrate to provide reliable and sensitive detection in intact cells. Cells were loaded with an engineered fluorescent substrate containing two fluorophores, coumarin and fluorescein. Without bla expression, the substrate molecule remains intact. In this state, excitation of the coumarin results in fluorescence resonance energy transfer to the fluorescein moiety and emission of green light. But when bla is expressed, the substrate is cleaved, the fluorophores are separated, and energy transfer is disrupted. Excitation of the coumarin in the presence of Beta-lactamase activity results in a blue fluorescence signal. […]
(§2) General Activator Assay Protocol • 1. […] The assay, plate was read on a fluorescence plate reader (Tecan Safire^2) and the data is analyzed.
NFkB-bla THP-1 cells were thawed and resuspended in Assay Media (RPMI, 10% dialyzed FBS, 0.1 mM NEAA, 1 mM Sodium Pyruvate, 100 U/mL/100 μg/mL Pen/Strep) to a concentration of 625,000 cells/mL. […] The plate was read on a fluorescence plate reader.

Protein binding = type: in vitro ADME
Solubility, turbidity = type: physicochemical; conditions: kinetic from dmso stock
JAK2 pathway, TF-1 cells = test: JAK2/STAT5-irf1-bla TF1 screen; conditions: Homo sapiens, read-out: IC50 Cell-based selectivity: JAK2 pathway TF-1 cells
Experimental: as §1, §2
irf1-bla TF1 cells were thawed and resuspended in Assay Media (OPTI-MEM, 0.5% dialyzed FBS, 0.1 mM NEAA, 1 mM Sodium Pyruvate, 100 U/mL/100 μg/mL Pen/Strep) to a concentration of 1,562,500 cells/mL. […] The plate is read on a fluorescence plate reader.

RS4; 11 cells = test: Proliferation of RS4; 11 cells (Cell Titer-Glo); conditions: Homo sapiens, B cells, outcome-based, read-out: IC50 Proliferation RS4, 11 cells (ALL)
Experimental: Growth inhibitory activity against the human tumor cell lines, RS4; 11 and Daudi was determined using Promega's Cell Titer-Glo® assay. The human tumor cells were placed in a 96-well microculture plate (Costar white, flat bottom #3917) in a total volume of 90 μL/well. After 24 hours of incubation in a humidified incubator at 37° C. with 5% CO2 and 95% air, […] serially diluted test agents in growth medium were added to each well. After 96 total hours of culture in a CO2 incubator, the plated cells and Cell Titer-Glo® (Promega # G7571) reagents were brought to room temperature to equilibrate for 30 minutes. 100 μL of Cell Titer-Glo® reagent was added to each well. The plate was shaken for 2 minutes and then left to equilibrate for 10 minutes before reading luminescence on the Tecan GENios microplate reader.
Percent inhibition of cell growth was calculated relative to untreated control wells. All tests were performed in duplicate at each concentration level. The IC50 value for the test agents was estimated using Prism 3.03 by curve-fitting the data using the following four parameter-logistic equation: […]

SMILES: O=C(CN1CCOCC1)Nc1cccc(-c2nc(-c3c[nH]c(C(=O)N4CCCC4)c3)cs2)c1 [7A, 2-morpholino-N-(3-(4-(5-(pyrrolidine-1-carbonyl)-1H-pyrrol-3-yl)thiazol-2-yl)phenyl)acetamide]
- pIC50 [1]: 4.39
- fraction unbound (Protein binding): 0.02
- solubility (Solubility, turbidity): 60 to 80 µM (≈ 27.9 to 37.2 µg/mL)
- pIC50 (JAK2 pathway, TF-1 cells): 4.31
- pIC50 (RS4; 11 cells): 6.30
